Test results from ChEMBL document CHEMBL4396868, “Discovery of Potent, Selective, and Brain-Penetrant 1 H-Pyrazol-5-yl-1 H-pyrrolo[2,3- b]pyridines as Anaplastic Lymphoma Kinase (ALK) Inhibitors” (J Med Chem, 2019).

Key:
[1] = target: Mitogen-activated protein kinase kinase kinase 5 (Homo sapiens) (UniProt Q99683); assay: Inhibition of N-terminal FLAG-tagged ASK1 (unknown origin) expressed in baculovirus expression system at 100 nM using myelin basic protein as substrate preincubated for 5 mins followed by [gamma-33P]ATP addition and measured after 60 mins by topcount scintillation counting method relative to control
Chain of Mitogen-activated protein kinase kinase kinase 5 (Homo sapiens) (Q99683 whole entry): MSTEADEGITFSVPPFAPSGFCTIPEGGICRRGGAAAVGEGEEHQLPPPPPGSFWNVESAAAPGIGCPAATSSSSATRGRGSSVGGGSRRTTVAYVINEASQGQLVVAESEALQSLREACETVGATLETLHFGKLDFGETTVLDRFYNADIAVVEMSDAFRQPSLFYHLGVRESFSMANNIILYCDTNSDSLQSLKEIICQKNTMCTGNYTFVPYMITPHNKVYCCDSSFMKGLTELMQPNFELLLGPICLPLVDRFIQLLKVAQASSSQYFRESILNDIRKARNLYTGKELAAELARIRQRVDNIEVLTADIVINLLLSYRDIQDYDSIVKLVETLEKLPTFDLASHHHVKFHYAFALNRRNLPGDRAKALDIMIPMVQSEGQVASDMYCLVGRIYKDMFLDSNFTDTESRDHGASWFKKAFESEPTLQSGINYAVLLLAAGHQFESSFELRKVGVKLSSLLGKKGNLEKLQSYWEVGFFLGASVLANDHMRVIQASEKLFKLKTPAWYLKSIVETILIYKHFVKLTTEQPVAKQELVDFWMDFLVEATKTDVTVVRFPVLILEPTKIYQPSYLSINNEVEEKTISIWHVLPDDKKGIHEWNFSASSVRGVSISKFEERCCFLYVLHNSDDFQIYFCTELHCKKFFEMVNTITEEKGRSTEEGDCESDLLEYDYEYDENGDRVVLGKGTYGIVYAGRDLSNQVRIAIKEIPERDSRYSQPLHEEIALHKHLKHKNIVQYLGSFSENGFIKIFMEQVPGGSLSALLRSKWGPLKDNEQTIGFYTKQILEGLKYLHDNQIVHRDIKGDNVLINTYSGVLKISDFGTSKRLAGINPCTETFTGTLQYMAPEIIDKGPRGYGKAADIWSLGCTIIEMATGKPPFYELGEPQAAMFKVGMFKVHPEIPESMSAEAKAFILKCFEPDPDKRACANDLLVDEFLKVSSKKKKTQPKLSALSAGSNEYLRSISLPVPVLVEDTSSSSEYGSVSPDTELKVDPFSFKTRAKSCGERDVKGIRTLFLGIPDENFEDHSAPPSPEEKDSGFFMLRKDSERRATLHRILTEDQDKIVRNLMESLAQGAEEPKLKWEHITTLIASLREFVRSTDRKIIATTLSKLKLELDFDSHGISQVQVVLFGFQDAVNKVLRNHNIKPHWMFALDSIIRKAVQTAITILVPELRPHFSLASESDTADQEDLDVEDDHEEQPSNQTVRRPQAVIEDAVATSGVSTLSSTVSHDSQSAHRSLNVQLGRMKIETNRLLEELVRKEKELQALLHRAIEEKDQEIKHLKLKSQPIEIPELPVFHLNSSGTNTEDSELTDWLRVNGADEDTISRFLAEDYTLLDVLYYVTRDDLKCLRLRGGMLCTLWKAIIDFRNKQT

[2] = Drug level in Jcl-ICR mouse brain at 100 mg/kg, ip measured at 0.5 hrs by LC/MS/MS analysis; format: ADME, organism-based; details: read-out: Drug uptake
[3] = target: High affinity nerve growth factor receptor (Homo sapiens, UniProt P04629); assay: Inhibition of TRKA (unknown origin) at 100 nM by [gamma-33P]ATP-based radiometric or Alphascreen assay relative to control
[4] = target: Phosphatidylinositol 4,5-bisphosphate 3-kinase catalytic subunit alpha isoform (Homo sapiens) (UniProt P42336); assay: Inhibition of PI3Kalpha (unknown origin) at 100 nM by [gamma-33P]ATP-based radiometric or Alphascreen assay relative to control
Chain of Phosphatidylinositol 4,5-bisphosphate 3-kinase catalytic subunit alpha isoform (Homo sapiens) (P42336 whole entry, canonical isoform): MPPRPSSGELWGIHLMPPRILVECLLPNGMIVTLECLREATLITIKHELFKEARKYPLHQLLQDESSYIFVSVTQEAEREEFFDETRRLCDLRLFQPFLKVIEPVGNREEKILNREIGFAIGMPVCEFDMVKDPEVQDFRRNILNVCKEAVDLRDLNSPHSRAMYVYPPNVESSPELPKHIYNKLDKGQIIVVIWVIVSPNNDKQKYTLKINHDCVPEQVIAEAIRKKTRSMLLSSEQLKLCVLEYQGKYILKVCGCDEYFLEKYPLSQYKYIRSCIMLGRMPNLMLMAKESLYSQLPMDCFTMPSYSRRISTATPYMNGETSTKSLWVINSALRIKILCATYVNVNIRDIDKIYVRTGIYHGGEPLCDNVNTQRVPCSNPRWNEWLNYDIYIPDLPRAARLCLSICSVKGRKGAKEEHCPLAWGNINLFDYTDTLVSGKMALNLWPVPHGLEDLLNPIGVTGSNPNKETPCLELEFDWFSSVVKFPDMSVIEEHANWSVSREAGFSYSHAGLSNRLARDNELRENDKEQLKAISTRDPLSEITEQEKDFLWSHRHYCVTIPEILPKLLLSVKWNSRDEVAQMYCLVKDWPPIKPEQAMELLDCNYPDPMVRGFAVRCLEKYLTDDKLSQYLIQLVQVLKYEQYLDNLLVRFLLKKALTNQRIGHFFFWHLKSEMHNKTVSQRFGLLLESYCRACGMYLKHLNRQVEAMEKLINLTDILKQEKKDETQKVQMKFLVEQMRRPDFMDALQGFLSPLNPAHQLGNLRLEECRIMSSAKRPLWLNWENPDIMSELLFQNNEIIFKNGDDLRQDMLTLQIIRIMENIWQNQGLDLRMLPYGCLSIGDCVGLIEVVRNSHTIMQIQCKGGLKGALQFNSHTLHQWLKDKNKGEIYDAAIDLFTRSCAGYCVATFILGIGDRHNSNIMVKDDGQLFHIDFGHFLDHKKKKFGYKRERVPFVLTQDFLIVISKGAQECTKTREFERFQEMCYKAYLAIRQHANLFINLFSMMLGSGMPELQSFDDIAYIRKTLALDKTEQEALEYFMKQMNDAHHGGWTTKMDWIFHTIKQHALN

[5] = target: Cyclin-dependent kinase 2 (Homo sapiens) (UniProt P24941); assay: Inhibition of CDK2 (unknown origin) at 100 nM by [gamma-33P]ATP-based radiometric or Alphascreen assay relative to control
[6] = target: MAP kinase-activated protein kinase 2 (Homo sapiens) (UniProt P49137); assay: Inhibition of MAPKAPK2 (unknown origin) at 100 nM by [gamma-33P]ATP-based radiometric or Alphascreen assay relative to control
[7] = target: ALK tyrosine kinase receptor (Homo sapiens, UniProt Q9UM73); format: cell-based, HEK293
Description: Inhibition of recombinant human ALK expressed in HEK293 cells assessed as reduction in ALK autophosphorylation at Tyr1604 residue incubated for 60 mins by sandwich ELISA

[8] = target: Cell division cycle 7-related protein kinase (Homo sapiens) (UniProt O00311); assay: Inhibition of CDC7 (unknown origin) at 100 nM by [gamma-33P]ATP-based radiometric or Alphascreen assay relative to control
Chain of Cell division cycle 7-related protein kinase (Homo sapiens) (O00311 whole entry, looked up): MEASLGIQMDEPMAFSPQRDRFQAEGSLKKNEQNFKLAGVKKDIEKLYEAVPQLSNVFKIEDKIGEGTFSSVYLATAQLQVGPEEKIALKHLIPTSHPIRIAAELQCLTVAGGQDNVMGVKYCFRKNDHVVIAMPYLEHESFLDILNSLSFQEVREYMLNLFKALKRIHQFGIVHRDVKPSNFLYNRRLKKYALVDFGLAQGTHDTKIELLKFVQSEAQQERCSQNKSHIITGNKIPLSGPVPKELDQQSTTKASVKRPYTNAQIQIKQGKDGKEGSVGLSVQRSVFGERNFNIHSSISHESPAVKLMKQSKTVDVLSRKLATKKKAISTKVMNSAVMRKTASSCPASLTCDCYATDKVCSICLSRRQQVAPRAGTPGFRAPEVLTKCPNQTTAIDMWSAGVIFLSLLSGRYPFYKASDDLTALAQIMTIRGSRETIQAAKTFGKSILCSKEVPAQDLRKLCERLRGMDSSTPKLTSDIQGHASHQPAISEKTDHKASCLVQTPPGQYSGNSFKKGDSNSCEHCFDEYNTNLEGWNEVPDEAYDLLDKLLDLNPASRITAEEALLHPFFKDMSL

MDR1 (ABCB1, P-gp) = MDR1 (ABCB1, P-gp) (Homo sapiens, UniProt P08183); assay: Substrate activity at human MDR1 expressed in pig LLC-PK1 cells assessed as efflux ratio of apparent permeability across basolateral to apical over apical to basolateral side at 10 uM after 2 hrs by LC/MS/MS analysis; format: ADME, cell-based
[9] = target: Glycogen synthase kinase-3 beta (Homo sapiens) (UniProt P49841); assay: Inhibition of N-terminal FLAG-tagged GSK3beta (unknown origin) expressed in baculovirus expression system at 100 nM using pGS peptide as substrate preincubated for 5 mins followed by [gamma-33P]ATP addition and measured after 30 mins by topcount scintillation counting method relative to control
[10] = Unbound brain-to-plasma concentration ratio in Jcl-ICR mouse at 100 mg/kg, ip measured at 1 hr by LC/MS/MS analysis; format: ADME, organism-based; details: read-out: K(p,uu,brain)
[11] = target: Proto-oncogene tyrosine-protein kinase Src (Homo sapiens) (UniProt P12931); assay: Inhibition of recombinant human full-length N-terminal His6-tagged SRC expressed in Sf21 insect cells at 100 nM preincubated for 5 mins followed by ATP addition and measured after 10 mins by alphascreen assay relative to control
[12] = target: Dual specificity mitogen-activated protein kinase kinase 1 (Homo sapiens) (UniProt Q02750); assay: Inhibition of N-terminal GST-fused MEK1 (unknown origin) expressed in FreeStyle 293 cells at 100 nM using GST-ERK1(K71A) as substrate preincubated for 5 mins followed by [gamma-33P]ATP addition and measured after 20 mins by topcount scintillation counting method relative to control
Chain of Dual specificity mitogen-activated protein kinase kinase 1 (Homo sapiens) (Q02750 whole entry, the tested form may be a part): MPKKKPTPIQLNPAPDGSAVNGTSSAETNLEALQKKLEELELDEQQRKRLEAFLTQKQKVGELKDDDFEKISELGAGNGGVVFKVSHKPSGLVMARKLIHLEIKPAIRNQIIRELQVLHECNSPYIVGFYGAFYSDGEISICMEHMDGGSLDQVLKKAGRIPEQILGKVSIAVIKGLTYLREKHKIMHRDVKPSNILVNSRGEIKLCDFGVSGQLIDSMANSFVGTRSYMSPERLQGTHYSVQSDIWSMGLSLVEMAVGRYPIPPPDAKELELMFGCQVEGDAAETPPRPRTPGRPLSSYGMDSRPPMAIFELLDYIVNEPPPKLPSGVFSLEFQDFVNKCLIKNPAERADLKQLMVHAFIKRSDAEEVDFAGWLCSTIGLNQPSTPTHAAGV

[13] = target: Aurora kinase B (Homo sapiens) (UniProt Q96GD4); assay: Inhibition of N-terminal His6-tagged AuroraB (unknown origin) expressed in baculovirus expression system at 100 nM using aurora peptide as substrate preincubated for 5 mins followed by [gamma-33P]ATP addition and measured after 60 mins by topcount scintillation counting method relative to control
[14] = target: Hepatocyte growth factor receptor (Homo sapiens) (UniProt P08581); assay: Inhibition of recombinant human N-terminal GST-fused/His6-tagged c-MET (956 to 1390 residues) expressed in baculovirus infected Spodoptera frugiperda cells at 100 nM preincubated for 5 mins followed by ATP addition and measured after 10 mins by alphascreen assay relative to control
Chain of Hepatocyte growth factor receptor (Homo sapiens) (P08581 whole entry, the tested form may be a part): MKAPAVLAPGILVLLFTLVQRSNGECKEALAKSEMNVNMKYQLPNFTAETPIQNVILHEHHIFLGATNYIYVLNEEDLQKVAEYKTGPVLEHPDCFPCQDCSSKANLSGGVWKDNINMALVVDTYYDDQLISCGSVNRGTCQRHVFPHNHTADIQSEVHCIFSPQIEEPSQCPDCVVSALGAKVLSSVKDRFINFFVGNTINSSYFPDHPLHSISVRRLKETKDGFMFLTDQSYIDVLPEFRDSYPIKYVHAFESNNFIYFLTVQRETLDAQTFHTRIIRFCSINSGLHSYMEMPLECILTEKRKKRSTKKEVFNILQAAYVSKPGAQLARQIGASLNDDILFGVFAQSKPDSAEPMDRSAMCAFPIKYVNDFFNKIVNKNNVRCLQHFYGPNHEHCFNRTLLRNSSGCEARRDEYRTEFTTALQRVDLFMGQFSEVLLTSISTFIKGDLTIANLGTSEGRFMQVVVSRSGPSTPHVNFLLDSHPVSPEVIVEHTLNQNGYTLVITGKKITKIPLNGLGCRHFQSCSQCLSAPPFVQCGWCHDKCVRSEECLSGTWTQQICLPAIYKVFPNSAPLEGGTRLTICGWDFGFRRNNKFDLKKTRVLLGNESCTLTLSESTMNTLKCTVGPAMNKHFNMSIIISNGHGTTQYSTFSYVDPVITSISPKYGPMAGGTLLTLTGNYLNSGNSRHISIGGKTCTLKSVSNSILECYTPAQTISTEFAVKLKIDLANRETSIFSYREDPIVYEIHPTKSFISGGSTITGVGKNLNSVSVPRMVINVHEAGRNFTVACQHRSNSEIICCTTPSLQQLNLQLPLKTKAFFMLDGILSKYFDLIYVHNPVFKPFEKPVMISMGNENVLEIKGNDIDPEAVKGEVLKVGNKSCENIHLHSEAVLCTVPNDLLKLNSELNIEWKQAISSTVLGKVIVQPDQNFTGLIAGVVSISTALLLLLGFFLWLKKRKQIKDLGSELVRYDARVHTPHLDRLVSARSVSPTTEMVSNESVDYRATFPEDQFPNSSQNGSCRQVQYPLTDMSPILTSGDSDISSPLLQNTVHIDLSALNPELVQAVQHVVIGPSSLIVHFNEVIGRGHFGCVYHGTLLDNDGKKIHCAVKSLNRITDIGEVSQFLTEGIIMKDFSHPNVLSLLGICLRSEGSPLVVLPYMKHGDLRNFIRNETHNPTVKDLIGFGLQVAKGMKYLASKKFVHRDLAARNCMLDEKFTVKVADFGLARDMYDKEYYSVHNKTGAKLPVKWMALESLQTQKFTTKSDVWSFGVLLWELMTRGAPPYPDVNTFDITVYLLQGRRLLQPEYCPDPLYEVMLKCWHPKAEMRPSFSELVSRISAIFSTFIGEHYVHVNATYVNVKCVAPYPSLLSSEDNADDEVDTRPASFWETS

[15] = Brain to plasma partition coefficient, Kp of the compound in Jcl-ICR mouse at 100 mg/kg, ip measured at 2 hrs by LC/MS/MS analysis; format: ADME, organism-based
[16] = target: Protein kinase C theta type (Homo sapiens) (UniProt Q04759); assay: Inhibition of N-terminal FLAG-tagged PKCtheta (unknown origin) expressed in baculovirus expression system at 100 nM using pGS peptide as substrate preincubated for 5 mins followed by [gamma-33P]ATP addition and measured after 30 mins by topcount scintillation counting method relative to control

- inhibition [1]: -1%
- concentration at 0.5 h [2]: 33000 ng/mL
- inhibition [3]: 9%
- inhibition [4]: -2%
- inhibition [5]: 5%
- inhibition [6]: 3%
- IC50 [7]: 27 nM
- inhibition [8]: -2%
- efflux ratio at 2 h, 10 µM (MDR1 (ABCB1, P-gp)): 1
- inhibition [9]: 3%
- Kp uu at 1 h [10]: 0.27
- inhibition [11]: -2%
- inhibition [12]: -1%
- inhibition [13]: 21%
- inhibition [14]: -5%
- Kp at 2 h [15]: 0.515
- inhibition [16]: 2%
SMILES: Cc1cc(-n2cc(C(=O)N3CCO[C@@H](C)C3)c3ccc(O[C@@H](C)c4ccc(F)cn4)nc32)n[nH]1
